# According to US7166688B1, “Chelation compositions” (LidoChem, Inc., priority 2000, dated 2007):
# How the values were obtained:
# pepper plants = assay: IDS versus EDTA chelates applied to the soil of pepper plants, tissue analysis; type: in vivo
# Procedure: Below is the protocol and tissue analysis for the soil-applied iminodisuccinate and EDTA chelated mineral salts. Treatments: Control—no fertilizer 15-30-15 (fertilizer) alone 15-30-15 plus Cu IDS […] 15-30-15 plus Mn IDS […] 15-30-15 plus Zn IDS […] The standard fertilizer contained no micronutrients. Fertilizer was Hyponex 15-30-15. Each treatment was replicated 3 times. Soil treatments were applied as 50 ml per of the dilute blend of this invention. The pepper plants were transplanted into 1-gallon containers and grown until a suitable size. Plants were treated with the soil-applied chelate. Tissue samples were taken 30 days after the soil treatment had been applied. […] One gallon of fertilizer was poured over three replications of each set in the trial.
# [1] = tested on: corn seed, NCE Hybrid 5817; assay: Corn seed germination with IDS acid, root hairs; type: in vivo; details: 10 corn seed on germination tray, 1/10th of a gram of IDS acid, imbibed with water, day 5; control: root hairs only on short segments
# Excerpt: A 34% tetrasodium iminodisuccinate solution was protonated with concentrated HCl and crystalized under refrigeration in a dilute water/ethanol. The crystals were then filtered out of the solution and the residual sodium chloride was rinsed from the crystals with ice water. The IDS crystals were then dried. Two sets of 10 corn seed, NCE Hybrid 5817, were then placed on germination trays. One tray had 1/10th of a gram of the IDS acid placed in the center of the tray. The seeds were then imbibed with water. The seeds germinated as expected on day 2. On day 5 the root hairs began to show on the seedlings treated with the IDS. Photos were taken. This procedure was repeated on three occasions with simular results. There were also root hairs on the control set, however, the root hairs were only on short segments of the roots. […] This would be a substantial increase in the root surface area.
compound,measurement,setting,value
"O=C(O)CC(NC(CC(=O)O)C(=O)O)C(=O)O (stereo not drawn) [IDS, iminodisuccinic acid]","copper in tissue, TREATED","pepper plants; soil applied with 15-30-15, tissue 30 days after treatment, control 8.0",10.8
same,TREATED (dry weight),"pepper plants; soil applied, control 4.8",6.4
same,TREATED DRY,"pepper plants; soil applied, dry weight, CONTROL DRY 4.8",6.8
same,"copper in tissue, TREATED ADJUSTED","pepper plants; soil applied, tissue level times dry weight, control adjusted 38.08",68.79
same,"copper in tissue, CHANGE IN (adjusted)","pepper plants; soil applied, treated adjusted minus control adjusted 38.08",30.72
same,CHANGE IN WEIGHT,"pepper plants; soil applied, treated dry minus control dry 4.8",2.09
same,"copper in tissue, % CHANGE (adjusted)","pepper plants; soil applied, versus control adjusted 38.08",81%
same,% CHANGE (dry weight),"pepper plants; soil applied, versus control dry 4.8",44%
same,root hairs on seedlings,[1],root hairs appear along the entire length of radical and lateral roots
